# What was measured:
# [1] = tested on: HeLa cells; assay type: cell-based, human
# [2] = tested on: HeLa/crmA cells; conditions: CHX 20 μg/ml, TNF-a 5 ng/ml, 24 h, trypan blue dye exclusion, mean ± SEM
# Protocol: Dosage response of HeLa and HeLa/crmA cells to TNF-α treatment was tested as follows. Cells were seeded in DMEM plus 10% fetal calf serum in a 24-well plate at a density of 4×10^4 cells per well. After overnight incubation, the cells were washed twice with serum-free DMEM. Drugs were then added to a total volume of 0.2 ml of serum-free DMEM and the cells were incubated for 24 hours. Cells were then trypsinized and dead cells scored on a hemocytometer by trypan blue exclusion (Sigma, St. Louis, Mo.). At least 200 cells were scored per well. Each concentration was tested in duplicate each time.
# The effect of crmA expression on TNF-induced apoptosis was tested. […] HeLa cells or HeLa/crmA cells were treated with cycloheximide (CHX) (20 μg/ml, Sigma), TNF-α (5 ng/ml, Sigma), or a combination of both drugs. […] Control HeLa and HeLa/crmA cells were tested for the ability to resist increasing amounts of TNF-α in the presence of 10 μg/ml CHX (FIG. 18). […] The dose response of crmA-expressing HeLa cells to increasing amounts of TNF-α in the presence of 10 μg/ml of CHX was tested.
smiles,measurement,setting,value
"C[C@@H]1C[C@@H]([C@H](O)CC2CC(=O)NC(=O)C2)C(=O)[C@@H](C)C1 [CHX, cycloheximide]",% dead cells,[1],2.9 ± 0.7%
same,% dead cells,[2],3.8 ± 0.5%
